The source of these data is US20150197536A1, “COMPOUNDS REDUCING THE PRODUCTION OF SORBITOL IN THE EYE AND METHODS OF USING THE SAME” (THE REGENTS OF THE UNIVERSITY OF COLORADO, a body corporate, priority 2012, published 2015).

The structures appear in SMILES notation.

The target of one test is T1, AKR1A1 (Homo sapiens, UniProt P14550).
T1 sequence (P14550 1-325): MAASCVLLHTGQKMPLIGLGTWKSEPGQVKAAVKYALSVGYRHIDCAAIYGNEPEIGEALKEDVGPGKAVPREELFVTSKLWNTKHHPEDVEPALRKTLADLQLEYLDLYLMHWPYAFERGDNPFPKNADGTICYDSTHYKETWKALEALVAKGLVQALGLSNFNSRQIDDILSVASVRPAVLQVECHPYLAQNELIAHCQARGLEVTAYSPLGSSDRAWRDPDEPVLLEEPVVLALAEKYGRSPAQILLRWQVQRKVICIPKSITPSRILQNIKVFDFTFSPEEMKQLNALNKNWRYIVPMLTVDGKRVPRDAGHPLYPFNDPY
As to the kind of experiment: Aldo keto reductase specificity, AKR1A1. Format: biochemical. The following applies: FIG. 3B; result in words.

Test [1] deals with lenses of PAR40 transgenic mice that express human AKR1B1. The experiment in a line: Sorbitol accumulation in lenses of PAR40 transgenic mice cultured ex vivo. Format: cell-based. As to conditions: PAR40 transgenic mice expressing human AKR1B1; hyperglycemic conditions; lenses excised and cultured ex vivo; FIG. 4B/5B.
Test [2] has as its system Raw264.7 murine macrophages. The experiment in a line: Sorbitol accumulation in Raw264.7 murine macrophages. Format: cell-based. The following applies: FIG. 4A/5A.
A further test concerns the target AKR1B10 (Homo sapiens, UniProt O60218). The experiment in a line: Aldo keto reductase specificity, AKR1B10. Type of test: biochemical. The following applies: FIG. 3B; result in words.
A further test concerns diabetic cataracts. As to conditions: active ingredient of gooseberry extracts; Puppala et al. 2012; cited from earlier work.

Chain of AKR1B10 (O60218 whole entry, species assumed): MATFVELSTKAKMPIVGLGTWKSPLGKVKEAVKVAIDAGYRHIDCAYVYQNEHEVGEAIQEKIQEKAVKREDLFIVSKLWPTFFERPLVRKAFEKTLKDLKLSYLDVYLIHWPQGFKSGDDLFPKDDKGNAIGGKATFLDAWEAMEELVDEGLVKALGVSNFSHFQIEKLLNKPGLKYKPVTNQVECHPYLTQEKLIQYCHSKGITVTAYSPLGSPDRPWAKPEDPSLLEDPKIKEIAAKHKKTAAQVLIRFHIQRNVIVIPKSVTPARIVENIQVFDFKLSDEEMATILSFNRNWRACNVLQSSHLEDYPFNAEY

As to `O=C(N[C@@H]1O[C@H](CO)[C@@H](O)[C@H](O)[C@H]1O)c1cc(O)c(O)c(O)c1` [BGA, 1-deoxy-1-(3,4,5-trihydroxybenzamido)-β-D-glucopyranose], on AKR1A1, the “specificity for AKR1B1 over AKR1A1” value is “displays specificity for AKR1B1 over other aldo keto reductase enzymes”. Also, the sorbitol accumulation entry in test [1] and in test [2] was “blocks sorbitol accumulation” throughout. For the same molecule, the “specificity for AKR1B1 over AKR1B10” value at AKR1B10 is listed as “displays specificity for AKR1B1 over other aldo keto reductase enzymes”.
As to `O=C(O[C@@H]1O[C@H](CO)[C@@H](O)[C@H](O)[C@H]1O)c1cc(O)c(O)c(O)c1` [BGG, 1-O-(3,4,5-trihydroxybenzoyl)-β-D-glucopyranose], the “efficacy in slowing the progression of diabetic cataracts” value in the test on diabetic cataracts is recorded as “efficacy in slowing the progression of diabetic cataracts”.
